Assay type in all cases: functional
One test relates to HeLa. Put plainly: Antiproliferative activity against human HeLa cells after 48 hrs by sulforhodamine B assay. A general note: Sulforhodamine B stains cellular protein and so reports cell mass.
A further test relates to HBL-100. The test is described as follows: Antiproliferative activity against human HBL100 cells after 48 hrs by sulforhodamine B assay. To be noted: HBL-100, 48 h.
The test system of another test is SW1573. The test is described as follows: Antiproliferative activity against human SW1573 cells after 48 hrs by sulforhodamine B assay. To be noted: SW1573, 48 h.
A further test relates to WiDr. Put plainly: Antiproliferative activity against human WiDr cells after 48 hrs by sulforhodamine B assay.
A further test relates to T47D. Put plainly: Antiproliferative activity against human T47D cells after 48 hrs by sulforhodamine B assay.
The test system of another test is A549. The test is described as follows: Antiproliferative activity against human A549 cells after 48 hrs by sulforhodamine B assay. To be noted: A549, 48 h.

In general, GI50 refers to the concentration at which growth is held to half of that of the control. Low values mean greater sensitivity of the cells, high ones lower sensitivity of the cells. As to `Cc1ccc(S(=O)(=O)OC[C@H]2O[C@@H](OCc3noc(-c4ccc([N+](=O)[O-])cc4)n3)[C@@H]3OC4(CCCC4)O[C@@H]32)cc1`, the GI50 with HeLa, with HBL-100, in the test on SW1573, in the test with WiDr, with T47D and with A549 was above 100 µM in each case.
On to `COc1cc(-n2cc(CO[C@@H]3O[C@H](CSc4ncn[nH]4)[C@H]4OC5(CCCC5)O[C@@H]34)nn2)cc(OC)c1OC`, for which the concentration for 50% growth inhibition (GI50) in the test with HeLa is 30 µM; with HBL-100, 84 µM; in the test with SW1573, above 100 µM; in the test with WiDr, 26 µM; with T47D, 41 µM; in the test on A549, 33 µM.
As to `COc1cc(-c2nc(CO[C@@H]3O[C@H](CSc4nnc(N)s4)[C@H]4OC5(CCCC5)O[C@@H]34)no2)cc(OC)c1OC`, the GI50 in the test with HeLa turned out to be 31 µM; in the test with HBL-100, 33 µM; with SW1573, 38 µM; with WiDr it was 41 µM; in the test on T47D, 42 µM; in the test on A549, 36 µM.
As for `COc1cc(C2=NOC(CO[C@@H]3O[C@H](CSc4ncn[nH]4)[C@H]4OC5(CCCC5)O[C@@H]34)C2)cc(OC)c1OC` (stereo not given in full), the GI50 with HeLa is 38 µM; with HBL-100 it was 43 µM; with SW1573, above 100 µM; with WiDr, 53 µM; in the test with T47D it was 55 µM; in the test with A549, 37 µM.
In the case of `O=[N+]([O-])c1ccc(-c2nc(CO[C@@H]3O[C@H](CO)[C@H]4OC5(CCCC5)O[C@@H]34)no2)cc1`, the GI50 with HeLa was found to be 15 µM; in the test on HBL-100 it was 17 µM; in the test with SW1573 it was 27 µM; in the test on WiDr it was 41 µM; in the test on T47D, 50 µM; in the test with A549 it was 32 µM.
In the case of `Nc1nnc(SC[C@H]2O[C@@H](OCc3noc(-c4ccc([N+](=O)[O-])cc4)n3)[C@@H]3OC4(CCCC4)O[C@@H]32)s1`, the GI50 with HeLa stood at 28 µM; in the test on HBL-100, 26 µM; in the test with SW1573, 16 µM; with WiDr it was 26 µM; with T47D, 19 µM; with A549, 14 µM.
In the case of `Nc1nnc(SC[C@H]2O[C@@H](OCc3noc(-c4ccc(Cl)cc4)n3)[C@@H]3OC4(CCCC4)O[C@@H]32)s1`, the concentration for 50% growth inhibition (GI50) with HeLa is 16 µM; in the test with HBL-100 it was 30 µM; in the test on SW1573 it was 17 µM; in the test with WiDr, 15 µM; with T47D it was 18 µM; in the test with A549, 15 µM.
Regarding `COc1cc(-c2nc(CO[C@@H]3O[C@H](CSc4ncn[nH]4)[C@H]4OC5(CCCC5)O[C@@H]34)no2)cc(OC)c1OC`, the GI50 was found to be 37 µM in the test on HeLa; 34 µM in the test with HBL-100; 36 µM in the test on SW1573; 42 µM in the test with WiDr; 44 µM with T47D; 28 µM in the test on A549.
Take `O=[N+]([O-])c1ccc(-c2nc(CO[C@@H]3O[C@H](CSc4ncn[nH]4)[C@H]4OC5(CCCC5)O[C@@H]34)no2)cc1`: the 50% growth inhibitory concentration (GI50) in the test on HeLa was 20 µM; in the test with HBL-100, 24 µM; in the test on SW1573 it was 15 µM; with WiDr, 20 µM; with T47D it was 20 µM; in the test on A549 it was 10 µM.
As for `CC1(C)O[C@H]2[C@H](OCc3noc(-c4ccc([N+](=O)[O-])cc4)n3)O[C@H](CO)[C@H]2O1`, the GI50 in the test on HeLa was 99 µM; in the test on HBL-100, 99 µM; with SW1573, 60 µM; in the test with WiDr, above 100 µM; in the test with T47D, above 100 µM; in the test with A549, 99 µM.
For `CC1(C)O[C@H]2[C@H](OCc3noc(-c4ccc([N+](=O)[O-])cc4)n3)O[C@H](CSc3ncn[nH]3)[C@H]2O1`, the GI50 was 89 µM with HeLa; above 100 µM in the test on HBL-100; above 100 µM in the test on SW1573; above 100 µM in the test on WiDr; above 100 µM in the test with T47D; 90 µM in the test on A549.
As to `CC1(C)O[C@H]2[C@H](OCc3noc(-c4ccc([N+](=O)[O-])cc4)n3)O[C@H](CSc3nnc(N)s3)[C@H]2O1`, the GI50 with HeLa, in the test with HBL-100, with SW1573, in the test with WiDr, in the test on T47D and with A549 was above 100 µM throughout.
As for `CC(=O)OC[C@H]1O[C@@H](OCc2noc(-c3ccc([N+](=O)[O-])cc3)n2)[C@@H]2OC3(CCCC3)O[C@@H]21`, the 50% growth inhibitory concentration (GI50) with HeLa was found to be 17 µM; in the test on HBL-100, 23 µM; in the test with SW1573, 29 µM; in the test on WiDr, 36 µM; in the test on T47D it was 52 µM; in the test with A549 it was 29 µM.
As to `COc1cc(-c2cc(CO[C@@H]3O[C@H](CSc4ncn[nH]4)[C@H]4OC5(CCCC5)O[C@@H]34)on2)cc(OC)c1OC`, the concentration for 50% growth inhibition (GI50) amounted to 67 µM in the test on HeLa; 87 µM with HBL-100; 97 µM with SW1573; 74 µM in the test on WiDr; 94 µM in the test with T47D; 59 µM in the test on A549.
As to `Clc1ccc(-c2nc(CO[C@@H]3O[C@H](CSc4ncn[nH]4)[C@H]4OC5(CCCC5)O[C@@H]34)no2)cc1`, the GI50 amounted to 14 µM with HeLa; 24 µM in the test with HBL-100; 10 µM with SW1573; 4.5 µM in the test on WiDr; 10 µM with T47D; 13 µM in the test on A549.

Values taken from ChEMBL document CHEMBL4052770, “Synthesis and in vitro antiproliferative activities of (5-aryl-1,2,4-oxadiazole-3-yl) methyl d-ribofuranosides” (2017).
